The values below come from ChEMBL document CHEMBL1157929, “Thioether benzenesulfonamide inhibitors of carbonic anhydrases II and IV: structure-based drug design, synthesis, and biological evaluation” (Bioorg Med Chem, 2010).

≈ marks a conversion by molar mass, not a printed value.

A short description of the first data set: Solubility at pH 6.5 after 24 hrs by chemiluminescence assay. It is filed as physicochemical. The settings on record: buffer.
As to `COCCNC(=O)c1cc(S(N)(=O)=O)ccc1SCCc1ccccc1`, the solubility (as a rule, the concentration that dissolves in the medium under given conditions) at 24 h is above 304 µM.

`NS(=O)(=O)c1ccc(Sc2ccccc2)c(C(=O)NCc2ccccc2)c1` had a solubility at 24 h below 25.1 µM.

Regarding `NS(=O)(=O)c1ccc(Oc2ccccc2)c(C(=O)NCc2ccccc2)c1`, the concentration in solution (solubility at 24 h) came to 28.5 µM (≈ 10.9 µg/mL).

`CCNC(=O)c1cc(S(N)(=O)=O)ccc1SC1CCCC1` came in with a solubility at 24 h of 628 µM (≈ 206 µg/mL).

Consider `CCNC(=O)c1cc(S(N)(=O)=O)cnc1Sc1ccccc1`, for which the solubility at 24 h came out at 118 µM (≈ 39.8 µg/mL).

Compound `CCNC(=O)c1cc(S(N)(=O)=O)cnc1Sc1cccc(F)c1` came in with a solubility at 24 h of 43.2 µM (≈ 15.4 µg/mL).

`CCNC(=O)c1cc(S(N)(=O)=O)cc(F)c1SC(C)C` came in with a solubility at 24 h of 498 µM (≈ 160 µg/mL).

`CC(C)CNC(=O)c1cc(S(N)(=O)=O)ccc1SC(C)C` showed a solubility at 24 h of 689 µM (≈ 228 µg/mL).

`COCCCNCc1cc(S(N)(=O)=O)cnc1Sc1ccc(F)c(F)c1`: the concentration in solution (solubility at 24 h) came to 497 µM (≈ 201 µg/mL).

Compound `NS(=O)(=O)c1cnc(Sc2ccc(F)c(F)c2)c(CO)c1` displayed a solubility at 24 h above 353 µM.

`COCCNC(=O)c1cc(S(N)(=O)=O)cnc1Sc1ccccc1` registered a solubility at 24 h of 35.6 µM (≈ 13.1 µg/mL).

With `NS(=O)(=O)c1cnc(Sc2ccccc2)c(C(=O)NCCc2ccccc2)c1`, the solubility at 24 h is below 22.2 µM.

With `COCCCNC(=O)c1cc(S(N)(=O)=O)cnc1Sc1c(F)c(F)cc(F)c1F`, the solubility at 24 h stood at 214 µM (≈ 97 µg/mL).

Take `NS(=O)(=O)c1ccc(SCc2ccccc2)c(C(=O)NCc2ccccc2)c1`: the solubility at 24 h was below 24.2 µM.

For `COc1ccc(CCCNC(=O)c2cc(S(N)(=O)=O)cnc2Sc2c(F)c(F)cc(F)c2F)cc1`, the solubility at 24 h is below 19 µM.

`NCCCCNC(=O)c1cc(S(N)(=O)=O)cnc1Sc1c(F)c(F)cc(F)c1F` had a solubility at 24 h above 265 µM.

In turn, `COCCCNC(=O)c1cc(S(N)(=O)=O)cnc1Sc1cccc(F)c1` returned a solubility at 24 h of 89.6 µM (≈ 35.8 µg/mL).

Consider `CCNC(=O)c1cc(S(N)(=O)=O)ccc1Sc1ccccc1`, for which the solubility at 24 h is 205 µM (≈ 69 µg/mL).

As to `NS(=O)(=O)c1ccc(Sc2c(F)c(F)cc(F)c2F)nc1`, the concentration in solution (solubility at 24 h) came to 558 µM (≈ 189 µg/mL).

With `NS(=O)(=O)c1ccc(Sc2ccccc2)c(C(=O)NCc2ccccn2)c1`, the solubility at 24 h is above 275 µM.

Regarding `NS(=O)(=O)c1ccc(S(=O)(=O)c2ccccc2)c(C(=O)NCc2ccccc2)c1`, the solubility at 24 h worked out at 55.9 µM (≈ 24.1 µg/mL).

Compound `COCCCNC(=O)c1cc(S(N)(=O)=O)cnc1Sc1ccccc1` gave a solubility at 24 h above 287 µM.

`NS(=O)(=O)c1ccc(Sc2ccccc2CO)c(C(=O)NCc2ccccn2)c1` gave a solubility at 24 h above 258 µM.

Turning to `COCCCNC(=O)c1cc(S(N)(=O)=O)cnc1Sc1ccc(F)c(F)c1`, the solubility at 24 h was 40.9 µM (≈ 17.1 µg/mL).

For `COc1ccc(CNC(=O)c2cc(S(N)(=O)=O)cnc2Sc2ccc(F)c(F)c2)cc1`, the solubility at 24 h was below 19.9 µM.

On to `CCCNC(=O)c1cc(S(N)(=O)=O)cnc1Sc1ccccc1`, for which the concentration in solution (solubility at 24 h) was 156 µM (≈ 54.8 µg/mL).

The compound `NS(=O)(=O)c1cnc(Sc2c(F)c(F)cc(F)c2F)c(C(=O)NCc2ccccn2)c1` displayed a solubility at 24 h below 21.2 µM.

Regarding `NS(=O)(=O)c1ccc(Sc2c(F)c(F)cc(F)c2F)c(C(=O)NCCc2ccccn2)c1`, the concentration in solution (solubility at 24 h) came to 211 µM (≈ 102 µg/mL).

With `CN(C)CCNC(=O)c1cc(S(N)(=O)=O)cnc1Sc1ccccc1`, the solubility at 24 h is above 265 µM.

As for `CCNC(=O)c1cc(S(N)(=O)=O)cc(F)c1SCC(C)C`, the solubility at 24 h was 553 µM (≈ 185 µg/mL).

`NS(=O)(=O)c1ccc(Sc2ccccn2)c(C(=O)NCc2ccccn2)c1`: the solubility at 24 h was above 253 µM.

Compound `CCNCc1cc(S(N)(=O)=O)cnc1Sc1ccc(F)c(F)c1` gave a solubility at 24 h of 449 µM (≈ 161 µg/mL).

The nature of another data set: physchem. The settings on record: buffer, pH 6.5.
For `COCCCNC(=O)c1cc(S(N)(=O)=O)cnc1Sc1c(F)c(F)cc(F)c1F`, the solubility (thermodynamic) (in general, the concentration in solution at equilibrium with solid) at 4 h came to 124 µM (≈ 56.2 µg/mL).

In turn, `NCCCCNC(=O)c1cc(S(N)(=O)=O)cnc1Sc1c(F)c(F)cc(F)c1F` returned a solubility (thermodynamic) at 4 h of 3090 µM (≈ 1400 µg/mL).

`NS(=O)(=O)c1ccc(Sc2c(F)c(F)cc(F)c2F)nc1`: the thermodynamic solubility at 4 h amounted to 231 µM (≈ 78.1 µg/mL).

`CCNC(=O)c1cc(S(N)(=O)=O)cc(F)c1SCC(C)C` returned a solubility (thermodynamic) at 4 h of 395 µM (≈ 132 µg/mL).
